Reference: patent EP1897937A1, “Method of culturing NPCs” (NeuroProgen GmbH Leipzig, priority 2006, dated 2008)

Tests used:
Assay type in all cases: cell-based, human
[1] = tested on: hmNPCs; experiment: Western blot of proliferation marker PCNA and survival marker Bcl-2; settings: 100 µM antagonist, 2 times during the 2 weeks proliferation period, before 1 µM UTP
Procedure: (§1) To determine long-term proliferation, hmNPCs were plated and expanded for 2 passages with or without addition of various agents (see below) to the custom expansion media containing the growth factors EGF and FGF2. Different fetal midbrain tissues were included in this study. At the end of the proliferation period, differentiation of hmNPCs was induced via replacement of expansion media with mitogen-free media containing 1% FCS, 5 µM forskoline (Sigma-Aldrich Chemie GmbH Munich, Germany), and 100 pg/ml IL-1β (Sigma). The differentiation and expansion media were supplemented with different drugs as appropriate. Prior to immunocytochemistry or protein extraction, hmNPCs were allowed to differentiate for 1 week. To determine short-term proliferation via Ki67 immunostaining, the cells were seeded into 24-well plates (70,000 cells/well) and left overnight to rest. P2 receptor agonists (ATP, UTP, ATP + UTP, ADP, ADPβS) were supplied daily for 5 consecutive days. Ki67/nestin double-positive cells were counted in 8 randomly selected fields of nucleotide-treated or untreated samples. For the assessment of MAPK phosphorylation the cells were kept free of mitogens for 2 d prior to addition of the MEK-inhibitor in expansion media. In addition, the MEK-inhibitor was added during the differentiation period 15 min before UTP administration.
In order to prepare protein extracts, hmNPCs were collected, washed with ice-cold PBS and lysed in buffer [10 mM HEPES-KOH (pH 7.9), 10 mM KCI, 1.5 mM MgCl2, 0.1% NP-40], supplemented with protease inhibitor cocktail (Roche). After a brief centrifugation at 4°C/10 000×g, protein concentrations and protein yield from extracts were determined using the Bradford method (Bio-Rad, Hercules, CA, USA). To preserve the phosphorylation state of proteins, extracts for the MAPK experiment were obtained using the PhosphoSafe™ extraction reagent containing phophatase inhibitors (Novagen). […] The chemiluminescence was quantified using the AIDA, two-dimensional densitometry software (Raytest lsotopenmeb, Straubenhardt, Germany). […]

[2] = tested on: hmNPCs; experiment: Cell death / cell cycle assay (propidium iodide, FACS); settings: for block of the anti-proliferative effects of ATP, ADP and ADPβS: 30 minutes pretreatment, 10 µM suramin or 100 µM PPADS; for Sub-G1 / G0/G1 / G2/M / S: 48 h, 100 µM nucleotides, pretreated 30 minutes with 10 µM suramin or 100 µM PPADS where named; for G0/G1 / G2/M / S: mean ± SEM, n = 3
Procedure: Untreated (control) and treated exponentially growing […] were prepared for cell cycle analysis by lysing cells in 300 μl of hypotonic lysis buffer (0.1% sodium citrate, 0.1% Triton X-100, and 50 μg/ml propidium iodide [PI]). […] Histograms of DNA content were acquired using the CellQuest software. […] For data analysis and correction of the background, noise histograms were processed with the ModFit LT software (Verity, Turramurra, Australia).

[3] = tested on: hmNPCs; experiment: Dopaminergic differentiation: TH protein expression by Western blot; settings: pre-treatment with 100 µM antagonist; UTP 1 µM in expansion, 100 µM in differentiation
[4] = tested on: hmNPCs; experiment: Dopaminergic differentiation: counting of TH-positive cells by immunocytochemistry
Procedure: as §1
(§2) UTP, UDP, ATP, ADP, ADPβS and suramin were purchased from Sigma (Sigma-Aldrich Chemie GmbH Munich, Germany). UTP and UDP were applied at different concentrations (1 µM, 10 µM, 100 µM), ATP at 100 µM, ADP at 100 µM, and ADPβS at100 µM. During expansion of the cells, the nucleotides were renewed once a week with every media change, unless otherwise stated. They were applied once at the beginning of the differentiation period. The P2 receptor antagonist suramin (10 µM) was added to expansion media 30 min prior to addition of UTP (100 µM). The stock solution of the MEK1/2 inhibitor U0126 (Promega Corporation, Mannheim, Germany) was prepared in dimethyl sulfoxide (DMSO) at a concentration of 10 mM. The stock solution was then diluted in 0.1 M PBS to obtain a concentration of 1 mM. MEK inhibitor (final concentration 10 µM) was added to mitogen-free expansion media, 15 min before UTP treatment (1 µM) of hmNPCs.
Expanded or one week differentiated hmNPCs were fixed with 4% paraformaldehyde in PBS for 10 min at room temperature and washed with PBS, counterstained with the DNA-binding dye 4'-6-Diamidino-2-phenylindole (DAPI, 2 µg/ml in PBS) for 15 min at room temperature, washed twice in PBS followed by incubation in blocking buffer (10% FCS, 0.2% Triton-X 100 in PBS, pH 7.2) for 30 min at room temperature. After incubation with a primary antibody (over night at 4°C in blocking buffer), the cells were incubated with fluorescent secondary antibodies, Alexa Fluor® 488 conjugate or Alexa Fluor® 594 conjugate (Molecular Probes, Eugene, USA). Cover-slips were mounted onto glass slides and examined under a fluorescence microscope (Zeiss Axiovert 200). Acquisition of the cells was performed using the Image-analysis software AxioVision 4 (Carl Zeiss AG, Jena, Germany). The following primary antibodies were used for immunofluorescence: rabbit polyclonal anti-β-tubulin III (anti-Tuj1) antibody, rabbit polyclonal anti-tyrosine hydroxylase antibody , mouse monoclonal anti-nestin antibody (Pharmingen, San Diego, CA, USA), rabbit polyclonal anti-Ki67 antigen antibody (Novocastra Laboratories Ltd, Newcastle upon Tyne, UK). Estimation of the TH-positive cell numbers was performed by counting of cells among approximately 1000 differentiated cells in total within 6 randomly selected fields.

[5] = tested on: hmNPCs; experiment: Dopaminergic differentiation: TH protein expression by Western blot; settings: for expression of TH, pre-treatment before UTP: 10 µM pre-treatment, 100 µM UTP, one week of differentiation
Procedure: as §1, §2
(§3) In order to prepare protein extracts, hmNPCs were collected, washed with ice-cold PBS and lysed in buffer [10 mM HEPES-KOH (pH 7.9), 10 mM KCI, 1.5 mM MgCl2, 0.1% NP-40], supplemented with protease inhibitor cocktail (Roche). After a brief centrifugation at 4°C/10 000×g, protein concentrations and protein yield from extracts were determined using the Bradford method (Bio-Rad, Hercules, CA, USA). To preserve the phosphorylation state of proteins, extracts for the MAPK experiment were obtained using the PhosphoSafe™ extraction reagent containing phophatase inhibitors (Novagen). […] Membranes were blocked with 5% (wt/vol) nonfat dry milk in PBS-T (PBS, 0.1% (vol/vol) Tween 20) for 2 h at room temperature and subsequently incubated with the desired primary antibody (diluted in PBS containing 5% non-fat milk and 0.1% Tween 20) overnight at 4 °C with gentle agitation. The membrane was incubated with horseradish peroxidase-coupled secondary antibody for 1 h at room temperature. Chemiluminescence detection was performed by incubating the membranes with SuperSignal-Dura substrate (Pierce Biotechnology, Rockford, U.S.A) followed by analysis on a CCD cooling camera (Fuji LAS-1000plus). The chemiluminescence was quantified using the AIDA, two-dimensional densitometry software (Raytest lsotopenmeb, Straubenhardt, Germany).

[6] = tested on: ERK1/2; experiment: ERK1/2 (MAPK) phosphorylation by Western blot; settings: for expression of phosphorylated ERK1/2, pre-treatment before UTP: 10 µM pre-treatment, 100 µM UTP, one week of differentiation
Procedure: as §1, §2
as §3, with “Chemiluminescence detection was performed by incubating the membranes with SuperSignal-Dura substrate (Pierce Biotechnology, Rockford, U.S.A) followed by analysis on a CCD cooling camera (Fuji LAS-1000plus).” left out

[7] = tested on: hmNPCs; experiment: Short-term proliferation: Ki67/nestin immunostaining; settings: 100 µM; 5 subsequent days
Procedure: as §1, with “hmNPCs” left out, “μM” for “µM”, “administration. […] Cover-slips were mounted onto glass slides and examined under a fluorescence microscope (Zeiss Axiovert 200). Acquisition of the cells was performed using the Image-analysis software AxioVision 4 (Carl Zeiss AG, Jena, Germany). The following primary antibodies were used for immunofluorescence: rabbit polyclonal anti-β-tubulin III (anti-Tuj1) antibody, rabbit polyclonal anti-tyrosine hydroxylase antibody , mouse monoclonal anti-nestin antibody (Pharmingen, San Diego, CA, USA), rabbit polyclonal anti-Ki67 antigen antibody (Novocastra Laboratories Ltd, Newcastle upon Tyne, UK). Estimation of the TH-positive cell numbers was performed by counting of cells among approximately 1000 differentiated cells in total within 6 randomly selected fields.” for “administration.”

[8] = tested on: hmNPCs; experiment: Long-term proliferation: number of living cells (hemocytometer, trypan blue exclusion)
Procedure: as §1, §2
Cell counting of control (untreated) and treated hmNPCs was performed using a hemocytometer. Adherent cells were collected by detachment with accutase™ (PAA Laboratories, Pasching, Austria) for 10 min at 37°C. […] The number of total and trypan blue-positive cells was then determined by counting at least 300 cells per sample in a hemocytometer.

[9] = 10 µM antagonist 30 min before 100 µM UTP

SMILES: Cc1nc(N=Nc2ccc(S(=O)(=O)O)cc2S(=O)(=O)O)c(COP(=O)(O)O)c(C=O)c1O [PPADS, Pyridoxal-phosphate-6-azophenyl-2',4'-disulphonic acid]
- PCNA expression, antagonist before UTP [1]: reduced the PCNA expression to control levels
- block of the anti-proliferative effects of ATP, ADP and ADPβS [2]: failed to block
- TH expression increase by UTP, antagonist pre-treatment [3]: completely blocked

SMILES: Cc1ccc(C(=O)Nc2ccc(S(=O)(=O)O)c3cc(S(=O)(=O)O)cc(S(=O)(=O)O)c23)cc1NC(=O)c1cccc(NC(=O)Nc2cccc(C(=O)Nc3cc(C(=O)Nc4ccc(S(=O)(=O)O)c5cc(S(=O)(=O)O)cc(S(=O)(=O)O)c45)ccc3C)c2)c1 [suramin]
- number of TH-positive cells, antagonist before UTP [4, 9]: reduced
- TH protein content, antagonist before UTP [5, 9]: decreased
- expression of TH, pre-treatment before UTP [5]: remained at basal levels
- expression of phosphorylated ERK1/2, pre-treatment before UTP [6]: remained at basal levels
- block of the anti-proliferative effects of ATP, ADP and ADPβS [2]: failed to block

SMILES: Nc1ncnc2c1ncn2[C@@H]1O[C@H](COP(=O)(O)OP(=O)(O)OP(=O)(O)O)[C@@H](O)[C@H]1O [ATP, adenosine triphosphate]
- Ki67-positive cells [7]: strong reduction
- Sub-G1 [2]: 0.56%
- G0/G1 [2]: 91.69 ± 1.19%
- G2/M [2]: 1.42 ± 0.11%
- S [2]: 6.89 ± 1.17%

SMILES: O=c1ccn([C@@H]2O[C@H](COP(=O)(O)OP(=O)(O)O)[C@@H](O)[C@H]2O)c(=O)[nH]1 [UDP, uridine 5'-diphosphate]
- TH protein levels ([5]; 100 µM during the differentiation period): no increase
- activity at 1 µM ([5]; Homo sapiens, 1 µM during the differentiation period, read-out: TH expression in immunoblots): 194 ± 7%
- activity at 10 µM ([5]; Homo sapiens, 10 µM during the differentiation period, read-out: TH expression in immunoblots): 180 ± 8%

SMILES: N#CC(=C(/N)Sc1ccccc1N)/C(C#N)=C(\N)Sc1ccccc1N [U0126]
- proliferation of hmNPCs ([8]; data not shown): reduced
- expression of TH, pre-treatment before UTP [5]: remained at basal levels
- UTP-induced phosphorylation of ERK1/2, inhibitor pretreatment ([6]; 10 µM inhibitor for 15 min before 1 µM UTP): abrogated
- expression of phosphorylated ERK1/2, pre-treatment before UTP [6]: remained at basal levels

SMILES: Nc1ncnc2c1ncn2[C@@H]1O[C@H](COP(=O)(O)OP(=O)(O)O)[C@@H](O)[C@H]1O [ADP, adenosine diphosphate]
- number of living cells ([8]; 100 µM each, 2 weeks in expansion media, on coapplication ADP 30 min before UTP, 20160 min): 4 ± 0.5%
- Ki67-positive cells [7]: strong reduction
- activity at 100 µM ([4]; Homo sapiens, 168 h, 100 µM each, once, only during the differentiation period of one week, read-out: number of TH-positive (dopaminergic) cells as compared to control): 11 ± 3%
- Sub-G1 [2]: 0.54%
- G0/G1 [2]: 84.64 ± 0.41%
- G2/M [2]: 3.72 ± 0.20%
- S [2]: 11.63 ± 0.2%

SMILES: Nc1ncnc2c1ncn2[C@@H]1O[C@H](COP(=O)(O)OP(O)(O)=S)[C@@H](O)[C@H]1O [ADPβS]
- Ki67-positive cells [7]: strong reduction
- Sub-G1 [2]: 0.82%
- G0/G1 [2]: 84.21 ± 0.06%
- G2/M [2]: 3.61 ± 0.01%
- S [2]: 12.17 ± 0.05%
